From patent US10654884B2 (Vitae Pharmaceuticals, Inc., priority 2014, dated 2020) come the findings set out here.

Where only a bound is given, the exact number is not on record here.

Test [1] deals with T1, human CD73 (Homo sapiens, UniProt P21589).
T1 construct: purchased R&D Systems 5795-EN-010
T1 sequence (P21589 27-549): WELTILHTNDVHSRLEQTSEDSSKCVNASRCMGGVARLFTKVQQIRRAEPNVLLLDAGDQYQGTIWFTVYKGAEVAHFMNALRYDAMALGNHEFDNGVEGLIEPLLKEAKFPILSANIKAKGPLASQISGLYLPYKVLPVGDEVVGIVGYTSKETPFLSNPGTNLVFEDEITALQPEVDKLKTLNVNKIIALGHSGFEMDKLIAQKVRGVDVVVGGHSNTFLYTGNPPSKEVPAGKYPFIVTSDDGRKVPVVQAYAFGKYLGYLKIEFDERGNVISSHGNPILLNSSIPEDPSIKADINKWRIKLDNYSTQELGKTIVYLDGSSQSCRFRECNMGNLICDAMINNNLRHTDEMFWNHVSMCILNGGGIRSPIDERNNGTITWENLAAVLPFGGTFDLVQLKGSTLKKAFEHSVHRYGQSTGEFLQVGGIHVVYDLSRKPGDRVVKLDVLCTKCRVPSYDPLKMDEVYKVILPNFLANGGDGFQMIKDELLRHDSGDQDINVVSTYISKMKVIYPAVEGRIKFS
In words: Inhibition of 5′-Nucleotidase Activity of CD73 (Assay 1). The format is biochemical. Conditions: human CD73 4 ng/ml, 50 μM CMP, 20 min at RT, malachite green readout; read-out: Assay 1: IC50, inhibition of 5′-nucleotidase activity of CD73. The essentials: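 Human CD73 (4 ng/ml final) was incubated with 50 μM CMP in 25 mM Tris-HCl pH 7.4, 0.005% Brij-35 for 20 min at RT. Reactions were stopped with malachite green reagent and absorbance was read at 620 nm. IC50 came from a 4-parameter logistic fit.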

Test [2] concerns the target T2, CD73 on U138 neuroglioma cells (Homo sapiens, UniProt P21589).
T2 construct: U138 neuroglioma cells, which express CD73 on their surface; endogenous in cells; host or cells: U138 neuroglioma cells (ATCC)
T2 sequence (P21589 27-549): T1 sequence (P21589 27-549)
In words: Inhibition of Ecto-5′-Nucleotidase Activity in U138 Neuroglioma Cells (Assay 2). The format is cell-based. The following applies: 50 μM CMP, 2 hr at 37° C., malachite green readout, read-out: Assay 2: IC50, inhibition of ecto-5′-nucleotidase activity in U138 neuroglioma cells. On the procedure:
Inhibition of Ecto-5′-Nucleotidase Activity in U138 Neuroglioma Cells (Assay 2)
U138 cells were obtained from the American Type Culture Collection (ATCC) (Manassas, Va.), and cultured in complete growth media (DMEM, 10% FBS, 1 mM L-glutamine, 100 U penicillin-streptomycin) at 37° C., 5% CO2. The day before the experiment, cells were seeded at 2,500 cells/well in 100 μL of complete media into 96-well plates. Cells were washed twice with 200 μL of assay buffer (20 mM HEPES, pH 7.4, 137 mM NaCl, 5.4 mM KCl, 1.3 mM CaCl2, 4.2 mM NaHCO3, 1 mg/mL glucose) to remove residual inorganic phosphate. After washing, assays contained serial dilutions of test compounds and 50 μM of cytidine-5′-monophosphate (CMP) in a total volume of 200 μL of assay buffer, with a final DMSO concentration ≤0.1%. After 2 hr at 37° C., 5% CO2, 100 μL of supernatant was removed from the cells and the concentration of inorganic phosphate was determined using malachite green reagent. IC50 values for test compounds were determined from nonlinear regression fits of the data using XLfit (IDBS).

`CCOC(=O)[C@H](OC[C@H]1O[C@@H](n2cnc3c(N)nc(SCC)nc32)[C@H](O)[C@@H]1O)P(=O)(O)O` (single isomer, unassigned) [Example 44]: the IC50 in test [1] and in test [2] was above 1000 nM in each case.

Regarding `CCOC(=O)[C@H](OC[C@H]1O[C@@H](n2cnc3c(N)nc(C#N)nc32)[C@H](O)[C@@H]1O)P(=O)(O)O` (single isomer, unassigned) [Example 45], the IC50 in test [1] and in test [2] was below 100 nM each time.

Take `CCOC(=O)[C@@H](OC[C@H]1O[C@@H](n2cnc3c(N)nc(C#N)nc32)[C@H](O)[C@@H]1O)P(=O)(O)O` (single isomer, unassigned) [Example 45a]: the IC50 in test [1] and in test [2] was 100 to 1000 nM each time.

As for `CCOC(=O)[C@H](OC[C@H]1O[C@@H](n2cnc3c(N)nc(CC(C)C)nc32)[C@H](O)[C@@H]1O)P(=O)(O)O` (single isomer, unassigned) [Example 46], the IC50 in test [1] and in test [2] was 100 to 1000 nM each time.

Consider `CCOC(=O)[C@H](OC[C@H]1O[C@@H](n2cnc3c(N)nc(-c4ncco4)nc32)[C@H](O)[C@@H]1O)P(=O)(O)O` (single isomer, unassigned) [Example 49], for which the IC50 (in general, the concentration that gives 50% inhibition) in test [1] was below 100 nM; in test [2], 100 to 1000 nM.

Take `CCOC(=O)[C@@H](OC[C@H]1O[C@@H](n2cnc3c(N)nc(-c4ncco4)nc32)[C@H](O)[C@@H]1O)P(=O)(O)O` (single isomer, unassigned) [Example 49a]: the IC50 in test [1] is 100 to 1000 nM; in test [2] it was above 1000 nM.

For the compound `CCOC(=O)[C@H](OC[C@H]1O[C@@H](n2cnc3c(N)nc(C4CC4)nc32)[C@H](O)[C@@H]1O)P(=O)(O)O` (single isomer, unassigned) [Example 50], the IC50 is 100 to 1000 nM in test [1] and above 1000 nM in test [2].

For the compound `CCOC(=O)[C@H](OC[C@H]1O[C@@H](n2cnc3c(N)nc([C@@H]4NCCO4)nc32)[C@H](O)[C@@H]1O)P(=O)(O)O` (single isomer, unassigned) [Example 51], the results for the IC50 in test [1] and in test [2] were 100 to 1000 nM and above 1000 nM, respectively.

Consider `CCOC(=O)[C@H](OC[C@H]1O[C@@H](n2cnc3c(N)nc([C@H]4NCCO4)nc32)[C@H](O)[C@@H]1O)P(=O)(O)O` (single isomer, unassigned) [Example 51a], for which the IC50 in test [1] was 100 to 1000 nM; in test [2], above 1000 nM.

For the compound `CCOC(=O)[C@@H](OC[C@H]1O[C@@H](n2cnc3c(N)nc(F)nc32)[C@H](O)[C@@H]1O)P(=O)(O)O` (single isomer, unassigned) [Example 52], the IC50 is below 100 nM in test [1] and 100 to 1000 nM in test [2].

For the compound `CCOC(=O)[C@H](OC[C@H]1O[C@@H](n2cnc3c(N)nc(F)nc32)[C@H](O)[C@@H]1O)P(=O)(O)O` (single isomer, unassigned) [Example 52a], the IC50 was 100 to 1000 nM in test [1] and above 1000 nM in test [2].

`CC(C)(C)OC(=O)[C@H](OC[C@H]1O[C@@H](n2cnc3c(N)nc(C#N)nc32)[C@H](O)[C@@H]1O)P(=O)(O)O` (single isomer, unassigned) [Example 54]: the IC50 in test [1] and in test [2] was below 100 nM in each case.

In the case of `CC(C)(C)OC(=O)[C@@H](OC[C@H]1O[C@@H](n2cnc3c(N)nc(C#N)nc32)[C@H](O)[C@@H]1O)P(=O)(O)O` (single isomer, unassigned) [Example 54b], the IC50 in test [1] is below 100 nM; in test [2] it was 100 to 1000 nM.

As for `Nc1nc(Cl)nc2c1ncn2[C@@H]1O[C@H](COC(C(=O)O)P(=O)(O)O)[C@@H](O)[C@H]1O` (single isomer, unassigned) [Example 61], the IC50 in test [1] and in test [2] was below 100 nM each time.

Regarding `Cc1nc(N)c2ncn([C@@H]3O[C@H](COC(C(=O)O)P(=O)(O)O)[C@@H](O)[C@H]3O)c2n1` (single isomer, unassigned) [Example 69a], the IC50 was 100 to 1000 nM in test [1] and above 1000 nM in test [2].

As to `CCOC(=O)[C@H](OC[C@H]1C[C@@H](n2cnc3cccc(Cl)c3c2=O)[C@H](O)[C@@H]1O)P(=O)(O)O` (single isomer, unassigned) [Example 70], the IC50 in test [1] is 100 to 1000 nM; in test [2] it was above 1000 nM.

Consider `CCOC(=O)[C@H](OC[C@H]1C[C@@H](n2cnc3cccc(Br)c3c2=O)[C@H](O)[C@@H]1O)P(=O)(O)O` (single isomer, unassigned) [Example 72], for which the IC50 in test [1] is 100 to 1000 nM; in test [2], above 1000 nM.

On to `CCOC(=O)C(OC[C@H]1C[C@@H](n2cnc3c(N)nc(Cl)nc32)[C@H](O)[C@@H]1O)P(=O)(O)O` (single isomer, unassigned) [Example 76], for which the IC50 in test [1] and in test [2] was below 100 nM each time.

With `CCOC(=O)C(OC[C@H]1C[C@@H](n2cnc3c(N)nc(Cl)nc32)[C@H](O)[C@@H]1O)P(=O)(O)O` (single isomer, unassigned) [Example 76a], the IC50 in test [1] and in test [2] was 100 to 1000 nM in each case.

For the compound `CCOC(=O)C(OC[C@H]1C[C@@H](n2nnc3c(N)nc(Cl)nc32)[C@H](O)[C@@H]1O)P(=O)(O)O` (single isomer, unassigned) [Example 77], the values for the IC50 in test [1] and in test [2] were below 100 nM and 100 to 1000 nM, respectively.

Turning to `CCOC(=O)C(OC[C@H]1C[C@@H](n2nnc3c(N)nc(Br)nc32)[C@H](O)[C@@H]1O)P(=O)(O)O` (single isomer, unassigned) [Example 77a], the IC50 in test [1] was below 100 nM; in test [2] it was 100 to 1000 nM.

In the case of `CC(C)(C)OC(=O)C(OC[C@H]1C[C@@H](n2cnc3c(N)nc(Cl)nc32)[C@H](O)[C@@H]1O)P(=O)(O)O` (single isomer, unassigned) [Example 78], the IC50 in test [1] was below 100 nM; in test [2], 100 to 1000 nM.

In the case of `CC(C)(C)OC(=O)C(OC[C@H]1C[C@@H](n2cnc3c(N)nc(Cl)nc32)[C@H](O)[C@@H]1O)P(=O)(O)O` (single isomer, unassigned) [Example 78a], the figures for the IC50 in test [1] and in test [2] were 100 to 1000 nM and above 1000 nM, respectively.

In the case of `CCOC(=O)[C@](CC(=O)O)(OC[C@H]1O[C@@H](n2cnc3c(N)nc(F)nc32)[C@H](O)[C@@H]1O)P(=O)(O)O` (single isomer, unassigned) [Example 79], the figures for the IC50 in test [1] and in test [2] were 100 to 1000 nM and above 1000 nM, respectively.

`CCN(CC)C(=O)[C@@H](OC[C@H]1O[C@@H](n2cnc3c(N)nc(Cl)nc32)[C@H](O)[C@@H]1O)P(=O)(O)O` (single isomer, unassigned) [Example 82]: the values for the IC50 in test [1] and in test [2] were below 100 nM and 100 to 1000 nM, respectively.

As for `CCN(CC)C(=O)[C@H](OC[C@H]1O[C@@H](n2cnc3c(N)nc(Cl)nc32)[C@H](O)[C@@H]1O)P(=O)(O)O` (single isomer, unassigned) [Example 82a], the IC50 in test [1] is below 100 nM; in test [2], 100 to 1000 nM.

As for `CCOC(=O)C(OC[C@H]1O[C@@H](n2cnc3ccc(Cl)nc32)[C@H](O)[C@@H]1O)P(=O)(O)O` (single isomer, unassigned) [Example 87], the IC50 in test [1] is below 100 nM; in test [2], 100 to 1000 nM.

`CNc1nc(Cl)nc2c1ncn2[C@@H]1O[C@H](COC(C(F)(F)F)P(=O)(O)O)[C@@H](O)[C@H]1O` (single isomer, unassigned) [Example 100]: the figures for the IC50 in test [1] and in test [2] were 100 to 1000 nM and below 100 nM, respectively.

Consider `CNc1nc(Cl)nc2c1ncn2[C@@H]1O[C@H](COC(C(F)(F)F)P(=O)(O)O)[C@@H](O)[C@H]1O` (single isomer, unassigned) [Example 100a], for which the IC50 in test [1] and in test [2] was below 100 nM throughout.

On to `CNc1nc(Cl)nc2c1ncn2[C@@H]1O[C@H](COC(C)(C(=O)O)C(=O)O)[C@@H](O)[C@H]1O` [Example 2, (2-(((2R,3S,4R,5R)-5-(2-chloro-6-(methylamino)-9H-purin-9-yl)-3,4-dihydroxytetrahydrofuran-2-yl)methoxy)-2-methylmalonic Acid)], for which the IC50 in test [1] and in test [2] was 100 to 1000 nM in each case.
